One data set has as its system blood glucose level. Briefly: Oral glucose tolerance test (OGTT) in high-fat diet model. Type of data set: in vivo. Particulars: Mus musculus, 2 h; hypoglycemic level; 20 mg/kg oral, glucose 2 g/kg oral after 30 minutes; read-out: % AUC. The protocol:
To evaluate in vivo effective effects of the cyclohexene derivatives according to the present invention, experiments were carried out, as follows.
Specifically, male C57BL/6J (C57 black 6) […] (8 to 10 weeks old) in a high-fat diet model were acclimated for at least 7 days, and only healthy rat populations were selected and subjected to an oral glucose tolerance test (OGTT). The rats were fasted for 12 to 15 hours, and then randomly divided into groups with five rats per group. Thereafter, each of the compounds of Examples 1, 14, 48, 69, 80, 118, 139, 147, 148, 169, 190, 199, 200, 204, 227, and Comparative Examples 1 and 2 according to the present invention was administered to the rats at a dose of 20 mg/kg. In this case, a vehicle (0.5%, carboxymethyl cellulose (CMC)) was administered as an untreated group, and the dose of the compound administered together with the vehicle was orally administered at 10 ml/kg. After 30 minutes of administration, glucose (2 g/kg) was orally administered at a dose of 10 ml/kg. A blood glucose level was measured using an Accu-Chek Active Strip (Rosche Diagnostic Co.). In this case, the glucose level in blood collected via caudal venipuncture was measured at time points of −30, 0, 20, 40, 60, and 120 minutes after glucose administration.
In Table 3, the unit “% AUC (area under the curve)” represents a hypoglycemic level.

In data set [1] the target is T1, G protein-coupled receptor 119 (GPR-119) (Mesocricetus auratus, UniProt A0A1U8CD06).
T1 construct: hamster-derived β-cells containing G protein-coupled receptor 119 (GPR-119), HIT-T15 cells; host or cells: HIT-T15 (hamster pancreatic β-cells)
T1 sequence (A0A1U8CD06 1-334): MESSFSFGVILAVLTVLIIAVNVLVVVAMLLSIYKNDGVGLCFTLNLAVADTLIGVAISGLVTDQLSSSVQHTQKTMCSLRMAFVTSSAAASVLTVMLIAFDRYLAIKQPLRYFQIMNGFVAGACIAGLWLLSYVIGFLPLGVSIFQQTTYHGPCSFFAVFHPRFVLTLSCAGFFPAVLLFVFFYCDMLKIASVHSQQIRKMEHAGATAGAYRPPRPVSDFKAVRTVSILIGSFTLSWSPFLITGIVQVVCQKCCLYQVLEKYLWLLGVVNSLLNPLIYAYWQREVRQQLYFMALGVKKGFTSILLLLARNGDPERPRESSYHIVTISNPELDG
Briefly: Evaluation of cAMP activity in HIT-T15 cells (HTRF cAMP dynamic kit). Type of data set: cell-based, hamster. The conditions noted are these: cAMP activation. The procedure, abridged: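 HIT-T15 cells, 60,000/well, treated next day with compound at six concentrations ([…]) for 1 h at 37° C. Lysate cAMP quantified by HTRF competitive immunoassay (D2-cAMP, cryptate anti-cAMP); activity taken as change in FRET signal relative to DMSO.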
(In general: TR-FRET usually uses a lanthanide donor and a delayed reading to cut background.)

A short description of data set [2]: Weight change in diet-induced obesity (DIO) rat model, 4-week administration. In kind it is in vivo, male Sprague Dawley (SD) rats. The conditions noted are these: DIO rats, oral, 4 weeks. How it is done:
To simultaneously evaluate both the weight-loss and hypoglycemic effects of the cyclohexene derivative according to the present invention, experiments were carried out, as follows.
Specifically, male Sprague Dawley (SD) rats (approximately 4 weeks old) in a diet-induced obesity model were fed with a high-fat diet (Lab. Diet Co.) for approximately 10 weeks to induce high-fat diet-induced obesity (DIO). The rats undergoing the high-fat diet were randomly selected, and divided into groups (n=8) for respective administrations. The compounds of Comparative Examples 3 and 4 and Examples 48 and 119 were administered to the divided DIO rats each group for 4 weeks.
The weights of the DIO rats were measured twice a week during a period of administration of 4 weeks to record a change in the weights. At the end of the 4-week period of administration, a hypoglycemic effect was evaluated using an oral glucose tolerance test (OGTT), as follows.
FIG. 1 is a graph determining the changes in weights of rats after compounds of Example 48 and Comparative Examples 3 and 4 according to the present invention are administered to a diet-induced obesity (DIO) rat model for 4 weeks (In FIG. 1, the term “untreated group (Vehicle)” represents an untreated group in a high-fat DIO rat model; and the term “Lean” represents an untreated group in a normal SD rat model rather than a disease model).

Another data set is described as follows: in vivo. Particulars: female, Ihara's cataract rats (ICR), rat, po. The protocol:
To evaluate acute toxicity of the cyclohexene derivative according to the present invention, experiments were carried out, as follows.
Five 7-week-old female Ihara's cataract rats (ICRs) were supplied by Nara Biotech Co. Ltd., housed in a breeding farm, and acclimated to new environments while being fed with general solid feeds and water. When the rats were 8 weeks old, experiments were carried out. Environmental conditions were maintained constant: a set temperature of 23±3° C., a humidity of 55±15%, an illuminance of 150 to 300 Lux, a ventilation rate of 10 to 20 times/hour, and a lighting time of 12 hours (light-dark cycle: lighting at 8 a.m. and lights-out at 8 p.m.). As the feeds, solid feeds for laboratory animals (5L79 Lab Diet, Purina Mills, Richmond, Ind., USA), which had been sterilized by exposure to radiation, were provided by Orientbio Inc. so that rats were allowed to freely consume the solid feeds. As the water, running water was disinfected using a UV sterilizer and an ultra-filtration system, and then provided o that rats were allowed to freely drink the water in a water bottle. Analyses of contaminants in the water and feeds were carried out according to the ChemOn Inc.'s standard operating procedure (SOP). […]

Setting [3] is: 1 h at 37° C., six concentrations, read-out: EC50.

Where two headings read alike, the source gives them in different places.

As to `CC(C)c1noc(N2CCC(COc3ccc(C4=CCC(C(=O)NCC(=O)N5CCC[C@H]5C#N)CC4)cc3F)CC2)n1` (stereo partly drawn) [Example 139, N-(2-((S)-2-cyanopyrrolidin-1-yl)-2-oxoethyl)-4-(3-fluoro-4-((1-(3-isopropyl-1,2,4-oxadiazol-5-yl)piperidin-4-yl)methoxy)phenyl)cyclohex-3-enecarboxamide], the inhibition in vivo at 20 mg/kg in the data set on blood glucose level is 25.4%. Besides, in data set [1] (setting [3]), the EC50 worked out at 130 nM.

In the case of `CC(C)CC(N(C)C)C1(c2ccc(Cl)cc2)CCC1` (stereo not drawn) [Comparative Example 4, Sibutramine], the weight-loss effect result in data set [2] (5 mg/kg) is listed as “the weight rather increased after 2 weeks of the oral administration”.

With `CC(C)(C)OC(=O)N1CCC(COc2ccc(C3=CCC(C(=O)N4CCCCC4)CC3)cc2)CC1` (stereo not drawn) [Example 204, tert-butyl 4-((4-(4-(piperidine-1-carbonyl)cyclohex-1-enyl)phenoxy)methyl)piperidine-1-carboxylate], the inhibition in vivo at 20 mg/kg with blood glucose level was determined as 24%. Further, the EC50 in data set [1] (setting [3]) was 9 nM; in data set [1] (read-out: EC50 value), not above 50 nM.

On to `CC(C)(C)OC(=O)N1CCC(COc2ccc(C3=CCC(C(=O)N4CCOCC4)CC3)cc2F)CC1` (stereo not drawn) [Example 69, tert-butyl 4-((2-fluoro-4-(4-(morpholine-4-carbonyl)cyclohex-1-enyl)phenoxy)methyl)piperidine-1-carboxylate], for which the inhibition in vivo at 20 mg/kg in the data set with blood glucose level is 19.1%. Further, the EC50 in data set [1] (setting [3]) was 7 nM; in data set [1] (read-out: EC50 value), not above 50 nM.

As for `CC(C)c1noc(N2CCC(COc3ccc(C4=CCC(C(=O)NC(CO)CO)CC4)cc3F)CC2)n1` (stereo not drawn) [Example 80, N-(1,3-dihydroxypropan-2-yl)-4-(3-fluoro-4-((1-(3-isopropyl-1,2,4-oxadiazol-5-yl)piperidin-4-yl)methoxy)phenyl)cyclohex-3-enecarboxamide], in the data set with blood glucose level, the inhibition in vivo at 20 mg/kg was 19.7%. The half-maximal effective concentration (EC50) in data set [1] (setting [3]) was found to be 89 nM.

In “in vivo”, `CCc1cnc(N2CCC(COc3ccc(C4=CCC(C(=O)N5CCC[C@H]5CO)CC4)cc3)CC2)nc1` (stereo partly drawn) [Example 119, (4-(4-((1-(5-ethylpyrimidin-2-yl)piperidin-4-yl)methoxy)phenyl)cyclohex-3-enyl)((S)-2-(hydroxymethyl)pyrrolidin-1-yl)methanone] came in with an LD50 not below 2000 mg/kg. Besides, the EC50 in data set [1] (setting [3]) was 6.8 nM; in data set [1] (read-out: EC50 value), not above 50 nM.

In the case of `C[C@H](CO)NC(=O)C1CC=C(c2ccc(OCC3CCN(C(=O)OC(C)(C)C)CC3)cc2)CC1` (stereo partly drawn) [Example 1, tert-butyl 4-((4-(4-((R)-1-hydroxypropan-2-ylcarbamoyl)cyclohex-1-enyl)phenoxy)methyl)piperidine-1-carboxylate], the inhibition in vivo at 20 mg/kg with blood glucose level is 28.5%. In addition, in data set [1] (setting [3]), the EC50 amounted to 65 nM.

In the case of `CC(C)c1noc(N2CCC(COc3ccc(C4=CCC(C(=O)N5CCC[C@H]5CO)CC4)cc3)CC2)n1` (stereo partly drawn) [Example 148, ((S)-2-(hydroxymethyl)pyrrolidin-1-yl)(4-(4-((1-(3-isopropyl-1,2,4-oxadiazol-5-yl)piperidin-4-yl)methoxy)phenyl)cyclohex-3-enyl)methanone], in the data set on blood glucose level, the inhibition in vivo at 20 mg/kg was determined as 22.6%. Further, the EC50 in data set [1] (setting [3]) is 13 nM; in data set [1] (read-out: EC50 value), not above 50 nM.

With `CN(C)C(=N)NC(=N)N` [Comparative Example 3, Metformin], the weight-loss effect entry in data set [2] (300 mg/kg) is on record as “the weight rather increased after 2 weeks of the oral administration”.

Consider `CCc1cnc(N2CCC(COc3ccc(C4=CCC(C(=O)N5CCC[C@@H]5CO)CC4)cc3)CC2)nc1` (stereo partly drawn) [Example 118, (4-(4-((1-(5-ethylpyrimidin-2-yl)piperidin-4-yl)methoxy)phenyl)cyclohex-3-enyl)((R)-2-(hydroxymethyl)pyrrolidin-1-yl)methanone], for which, in the data set with blood glucose level, the inhibition in vivo at 20 mg/kg came to 23.5%. Further, the results for the EC50 in data set [1] (setting [3]) and in data set [1] (read-out: EC50 value) were 31 nM and not above 50 nM, respectively.

As for `CC(C)(C)OC(=O)N1CCC(COc2ccc(C3=CCC(C(=O)NC(CO)CO)CC3)nc2)CC1` (stereo not drawn) [Example 14, tert-butyl 4-((6-(4-(1,3-dihydroxypropan-2-ylcarbamoyl)cyclohex-1-enyl)pyridin-3-yloxy)methyl)piperidine-1-carboxylate], the inhibition in vivo at 20 mg/kg with blood glucose level is 21.9%. For the same molecule, the EC50 in data set [1] (setting [3]) turned out to be 650 nM.

In the case of `CC(C)c1noc(N2CCC(COc3ccc(C4=CCC(C(=O)N5CCC[C@@H]5CO)CC4)cc3)CC2)n1` (stereo partly drawn) [Example 147, ((R)-2-(hydroxymethyl)pyrrolidin-1-yl)(4-(4-((1-(3-isopropyl-1,2,4-oxadiazol-5-yl)piperidin-4-yl)methoxy)phenyl)cyclohex-3-enyl)methanone], in the data set with blood glucose level, the inhibition in vivo at 20 mg/kg came to 23.3%. For the same molecule, the EC50 in data set [1] (setting [3]) is 6.9 nM; in data set [1] (read-out: EC50 value), not above 50 nM.

As to `CC(C)c1noc(N2CCC(COc3ccc(-c4ccc(S(C)(=O)=O)cc4)nc3)CC2)n1` [Comparative Example 2, 2-(4-methanesulfonylphenyl)-5-({1-[3-(propan-2-yl)-1,2,4-oxadiazol-5-yl]piperidin-4-yl}methoxy)pyridine, reference compound], the inhibition in vivo at 20 mg/kg in the data set with blood glucose level turned out to be 15.3%. In addition, in data set [1] (EC50 (nM), 1 h at 37° C., six concentrations), the EC50 was determined as 49 nM.

In general, EC50 refers to the concentration that produces a half-maximal response. For orientation: LD50 means the dose at which mortality reaches 50%. High values mean lower toxicity, low ones greater toxicity.

Source of the values: patent US9758527B2, “Cyclohexene derivative, preparation method therefor, and pharmaceutical composition for preventing or treating metabolic diseases, containing same as active ingredient” (HYUNDAI PHARM CO., LTD., priority 2014, dated 2017).
